# Reference: paper PMC10254170, “Diastereoselective Synthesis of the Borylated D-Galactose Monosaccharide 3-Boronic-3-Deoxy-D-Galactose and Biological Evaluation in Glycosidase Inhibition and in Cancer for Boron Neutron Capture Therapy (BNCT)” (Molecules, 2023)
# Read-outs that look alike come from different tables or passages of the source.
# Assays:
# BE2-C (neuroblastoma) = experiment: Cancer screening (MTT growth inhibition), BE2-C; assay type: cell-based; conditions: 72 h
# Procedure: (§1) All test agents were prepared as stock solutions (20 mM) in dimethyl sulfoxide (DMSO) and stored at −20 °C. Cell lines used in the study included: HT29 (colorectal carcinoma), U87 and SJ-G2 (glioblastoma), MCF-7 (breast carcinoma), A2780 (ovarian carcinoma), H460 (lung carcinoma), A431 (skin carcinoma), Du145 (prostate carcinoma), BE2-C (neuroblastoma), MiaPaCa-2 (pancreatic carcinoma), SMA560 (spontaneous murine astrocytoma), and ADDP (Cis Res Ovarian), together with one non-tumor-derived normal breast cell line (MCF10A). All cell lines were incubated in a humidified atmosphere with 5 % CO2 at 37 °C. The cancer cell lines were maintained in Dulbecco’s modified Eagle’s medium (DMEM; Sigma, Australia) supplemented with fetal bovine serum (10%), sodium pyruvate (10 mM), penicillin (100 IUmL^−1), streptomycin (100 µg mL^−1), and L-glutamine (2 mM).
# (§2) Growth inhibition was determined by plating cells in duplicate in medium (100 µL) at a density of 2500–4000 cells per well in 96-well plates. On day 0 (24 h after plating), when the cells are in logarithmic growth, medium (100 µL) with or without the test agent was added to each well. After 72 h of drug exposure, growth inhibitory effects were evaluated using the (3-(4,5-dimethyltiazol-2-yl)-2,5-diphenyltetrazolium bromide) (MTT) assay and absorbance read at 540 nm. The percentage growth inhibition was calculated at a fixed concentration of 25 µM, based on the difference between the optical density values on day 0 and those at the end of drug exposure. Each data point is the mean ± the standard error of the mean (SEM) calculated from three replicates, which were performed on separate occasions and in separate cell line passages.
# yeast α-glucosidase = experiment: Glycosidase inhibition, yeast α-glucosidase; assay type: biochemical; conditions: for inhibition %: in methanol
# Source text: (§3) Glycosidase modulation studies need to explore selectivity as well as potency. Our drugs and controls are therefore screened against a panel of glycosidases in methanol (Table 1) to identify the glycosidase-related disease area(s), selectivity profile, and potency of biological action for each drug. The presence of organic boron covalently bonded to the drug structure also grants a reduced toxicity profile. Following the glycosidase inhibition range recommendations, an IC50 value >250 μm denotes weak inhibition, 100–249 μm denotes moderate inhibition, 10–99 μm good inhibition, 0.1–9 μm potent inhibition, and <0.1 μm very potent inhibition. […] Our boronated D-galactose 7 represents a novel lead in glycosidase inhibition.
# (§4) The glycosidases screened are the following: rice α-glucosidase, yeast α-glucosidase, Bacillus α-glucosidase, rat intestinal maltase α-glucosidase, almond β-glucosidase, bovine liver β-glucosidase, coffee beans α-galactosidase, bovine liver β-galactosidase, Jack bean α-mannosidase, snail β-mannosidase, Penicillium decumbens α-L-rhamnosidase, bovine kidney α-L-fucosidase, Eschierichia coli β-glucuronidase, bovine liver β-glucuronidase, porcine kidney trehalase, Aspergillus niger amyloglucosidase, and bovine kidney N-acetyl-β-glucosaminidase. The disease areas for each glycosidase are summarized in [1].
# (§5) The enzymes α-glucosidase (from yeast), β-glucosidases (from almond and bovine liver), α-galactosidase (from coffee beans), β-galactosidase (from bovine liver), α-mannosidase (from Jack bean), β-mannosidase (from snail), α-L-rhamnosidase (from Penicillium decumbens), α-L-fucosidase (from bovine kidney), trehalase (from porcine kidney), β-glucuronidases (from E. coli and bovine liver), amyloglucosidase (from A. niger), para-nitrophenyl glycosides, and various disaccharides were purchased from Sigma-Aldrich Co.
# (§6) Brush border membranes were prepared from the rat small intestine according to the method of Kessler et al. and were assayed at pH 6.8 for rat intestinal maltase using maltose. For rat intestinal maltase, porcine kidney trehalase, and A. niger amyloglucosidase activities, the reaction mixture contained 25 mM maltose and the appropriate amount of enzyme, and the incubations were performed for 10–30 min at 37 °C. The reaction was stopped by heating at 100 °C for 3 min. After centrifugation (600 g; 10 min), the resulting reaction mixture was added to the Glucose CII-test Wako (Wako Pure Chemical Ind., Osaka, Japan). The absorbance at 505 nm was measured to determine the amount of the released D-glucose. Other glycosidase activities were determined using an appropriate para-nitrophenyl glycoside as substrate at the optimum pH of each enzyme. The reaction mixture contained 2 mM of the substrate and the appropriate amount of enzyme. The reaction was stopped by the addition of 400 mM Na2CO3. The released para-nitrophenol was measured spectrometrically at 400 nm. All reactions run in methanol.
# [1] = target: T1, bovine kidney α-L-fucosidase (Bos taurus, UniProt Q2KIM0); experiment: Glycosidase inhibition, bovine kidney α-L-fucosidase; assay type: biochemical
# T1 construct: purchased Sigma-Aldrich Co; host or cells: bovine kidney
# T1 sequence (Q2KIM0 23-468): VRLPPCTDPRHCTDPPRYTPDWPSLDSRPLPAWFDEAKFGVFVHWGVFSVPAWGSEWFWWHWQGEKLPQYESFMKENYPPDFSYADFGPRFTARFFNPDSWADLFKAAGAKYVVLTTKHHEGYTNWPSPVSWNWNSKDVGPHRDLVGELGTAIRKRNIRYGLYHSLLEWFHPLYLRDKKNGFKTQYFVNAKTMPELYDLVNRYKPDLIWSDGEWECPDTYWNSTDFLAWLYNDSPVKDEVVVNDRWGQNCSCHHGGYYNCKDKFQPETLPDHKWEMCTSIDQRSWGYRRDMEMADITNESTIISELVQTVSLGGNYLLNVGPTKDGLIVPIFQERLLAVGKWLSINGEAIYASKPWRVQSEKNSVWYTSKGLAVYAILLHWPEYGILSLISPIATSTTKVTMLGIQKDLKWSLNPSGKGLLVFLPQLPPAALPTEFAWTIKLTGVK
# Source text: as §3, §4, §5, §6
# rice α-glucosidase = rice α-glucosidase (Oryza sativa subsp. japonica, UniProt Q653V7); experiment: Glycosidase inhibition, rice α-glucosidase; assay type: biochemical
# Source text: as §3, §4, §6
# [2] = tested on: Penicillium decumbens α-L-rhamnosidase; experiment: Glycosidase inhibition, Penicillium decumbens α-L-rhamnosidase; assay type: biochemical; conditions: for inhibition %: in methanol
# Source text: as §3, §4, §5, §6
# MCF-7 (breast carcinoma) = experiment: Cancer screening (MTT growth inhibition), MCF-7; assay type: cell-based; conditions: 72 h; for Percentage (%) cell growth inhibition: 25 µM of drug
# Procedure: as §1, §2
# [3] = tested on: A2780 (ovarian carcinoma); experiment: Cancer screening (MTT growth inhibition), A2780; assay type: cell-based; conditions: 72 h; for Percentage (%) cell growth inhibition: 25 µM of drug
# Procedure: as §1, §2
# H460 (lung carcinoma) = experiment: Cancer screening (MTT growth inhibition), H460; assay type: cell-based; conditions: 72 h; for Percentage (%) cell growth inhibition: 25 µM of drug
# Procedure: as §1, §2
# [4] = tested on: rat intestinal maltase α-glucosidase; experiment: Glycosidase inhibition, rat intestinal maltase; assay type: biochemical; conditions: for inhibition %: in methanol
# Source text: as §3, §4, §6
# [5] = tested on: bovine liver β-galactosidase; experiment: Glycosidase inhibition, bovine liver β-galactosidase; assay type: biochemical; conditions: for inhibition %: in methanol
# Source text: as §3, §4, §5, §6
# A431 (skin carcinoma) = experiment: Cancer screening (MTT growth inhibition), A431; assay type: cell-based; conditions: 72 h; for Percentage (%) cell growth inhibition: 25 µM of drug
# Procedure: as §1, §2
# [6] = tested on: Du145 (prostate carcinoma); experiment: Cancer screening (MTT growth inhibition), Du145; assay type: cell-based; conditions: 72 h; for Percentage (%) cell growth inhibition: 25 µM of drug
# Procedure: as §1, §2
# [7] = at 1000 μM, in methanol, read-out: inhibition %
# [8] = at 1000 μM, read-out: NI: No inhibition
# [9] = 25 µM of drug, n = 3, mean ± SEM
# Chain of rice α-glucosidase (Q653V7 34-885): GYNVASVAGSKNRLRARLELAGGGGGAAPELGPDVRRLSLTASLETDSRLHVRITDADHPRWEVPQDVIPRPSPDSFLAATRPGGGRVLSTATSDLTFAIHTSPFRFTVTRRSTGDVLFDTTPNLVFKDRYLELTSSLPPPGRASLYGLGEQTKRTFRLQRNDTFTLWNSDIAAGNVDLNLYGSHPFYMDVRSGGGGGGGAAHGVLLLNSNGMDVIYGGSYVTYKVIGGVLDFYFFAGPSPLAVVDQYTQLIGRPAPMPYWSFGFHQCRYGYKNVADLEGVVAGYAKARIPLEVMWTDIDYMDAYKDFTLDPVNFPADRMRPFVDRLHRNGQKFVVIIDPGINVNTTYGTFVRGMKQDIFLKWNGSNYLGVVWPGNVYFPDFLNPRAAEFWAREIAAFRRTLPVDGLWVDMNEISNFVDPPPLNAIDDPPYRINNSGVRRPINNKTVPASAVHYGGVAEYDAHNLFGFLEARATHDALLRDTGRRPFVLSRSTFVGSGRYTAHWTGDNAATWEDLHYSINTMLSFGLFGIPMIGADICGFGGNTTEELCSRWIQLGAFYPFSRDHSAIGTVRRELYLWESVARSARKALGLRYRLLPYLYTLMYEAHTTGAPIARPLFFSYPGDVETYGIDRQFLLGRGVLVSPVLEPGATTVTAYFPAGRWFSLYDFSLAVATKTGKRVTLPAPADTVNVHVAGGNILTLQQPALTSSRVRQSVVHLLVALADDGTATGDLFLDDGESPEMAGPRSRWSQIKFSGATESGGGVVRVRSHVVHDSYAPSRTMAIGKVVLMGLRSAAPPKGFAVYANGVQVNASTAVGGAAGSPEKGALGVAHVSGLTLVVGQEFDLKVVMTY
molecule,measurement,setting,value
"OCC1OC(O)C(O)C(B(O)O)C1O [Compound 7, 3-Boronic-3-Deoxy-D-galactose]",inhibition at 25 µM,"BE2-C (neuroblastoma); Homo sapiens, BE(2)-C, 25 µM of drug, n = 3, mean ± SEM, read-out: Percentage (%) cell growth inhibition",1 ± 2%
same,GI50,"BE2-C (neuroblastoma); Homo sapiens, BE(2)-C, dose response, read-out: GI50 = Concentration that inhibits cell growth by 50%",> 50 µM
same,NI: No inhibition,yeast α-glucosidase; at 1000 μM,NI (No inhibition (less than 50% inhibition at 1000 μM))
same,inhibition %,yeast α-glucosidase; at 1000 μM,12.1%
same,inhibition at 1000 µM,[1]; [7],1.3%
same,inhibition at 1000 µM,[1]; [8],< 50%
same,inhibition at 1000 µM,rice α-glucosidase; [7],33.8%
same,inhibition at 1000 µM,rice α-glucosidase; [8],< 50%
same,NI: No inhibition,[2]; at 1000 μM,NI (No inhibition (less than 50% inhibition at 1000 μM))
same,inhibition %,[2]; at 1000 μM,0%
same,inhibition at 25 µM,"MCF-7 (breast carcinoma); Homo sapiens, MCF7, 25 µM of drug, n = 3, mean ± SEM, read-out: Percentage (%) cell growth inhibition",2 ± 2%
same,GI50,"MCF-7 (breast carcinoma); Homo sapiens, MCF7, dose response, read-out: GI50 = Concentration that inhibits cell growth by 50%",> 50 µM
same,inhibition at 25 µM,"[3]; Homo sapiens, A2780, 25 µM of drug, n = 3, mean ± SEM, read-out: Percentage (%) cell growth inhibition",8 ± 3%
same,GI50,"[3]; Homo sapiens, A2780, dose response, read-out: GI50 = Concentration that inhibits cell growth by 50%",> 50 µM
same,inhibition at 25 µM,"H460 (lung carcinoma); Homo sapiens, NCI-H460, 25 µM of drug, n = 3, mean ± SEM, read-out: Percentage (%) cell growth inhibition",4 ± 1%
same,GI50,"H460 (lung carcinoma); Homo sapiens, NCI-H460, dose response, read-out: GI50 = Concentration that inhibits cell growth by 50%",> 50 µM
same,NI: No inhibition,[4]; at 1000 μM,NI (No inhibition (less than 50% inhibition at 1000 μM))
same,inhibition %,[4]; at 1000 μM,18.3%
same,NI: No inhibition,[5]; at 1000 μM,NI (No inhibition (less than 50% inhibition at 1000 μM))
same,inhibition %,[5]; at 1000 μM,40.7%
same,inhibition at 25 µM,"A431 (skin carcinoma); Homo sapiens, A-431, 25 µM of drug, n = 3, mean ± SEM, read-out: Percentage (%) cell growth inhibition",3%
same,GI50,"A431 (skin carcinoma); Homo sapiens, A-431, dose response, read-out: GI50 = Concentration that inhibits cell growth by 50%",> 50 µM
same,inhibition at 25 µM,"[6]; Homo sapiens, DU-145, 25 µM of drug, n = 3, mean ± SEM, read-out: Percentage (%) cell growth inhibition",7 ± 4%
same,GI50,"[6]; Homo sapiens, DU-145, dose response, read-out: GI50 = Concentration that inhibits cell growth by 50%",> 50 µM
N[C@@H](Cc1ccc(B(O)O)cc1)C(=O)O [^10B-BPA],Percentage (%) cell growth inhibition,BE2-C (neuroblastoma); [9],10 ± 6%
same,NI: No inhibition,yeast α-glucosidase; at 100 μM,NI (No inhibition (less than 50% inhibition at 100 μM))
same,inhibition %,yeast α-glucosidase; at 100 μM,0%
same,NI: No inhibition,[1]; at 100 μM,NI (No inhibition (less than 50% inhibition at 100 μM))
same,inhibition %,"[1]; at 100 μM, in methanol",0%
same,NI: No inhibition,rice α-glucosidase; at 100 μM,NI (No inhibition (less than 50% inhibition at 100 μM))
same,inhibition %,"rice α-glucosidase; at 100 μM, in methanol",0%
same,NI: No inhibition,[2]; at 100 μM,NI (No inhibition (less than 50% inhibition at 100 μM))
same,inhibition %,[2]; at 100 μM,0%
same,Percentage (%) cell growth inhibition,"MCF-7 (breast carcinoma); n = 3, mean ± SEM",1 ± 3%
same,Percentage (%) cell growth inhibition,"[3]; n = 3, mean ± SEM",8 ± 4%
same,Percentage (%) cell growth inhibition,"H460 (lung carcinoma); n = 3, mean ± SEM",8 ± 5%
same,NI: No inhibition,[4]; at 100 μM,NI (No inhibition (less than 50% inhibition at 100 μM))
same,inhibition %,[4]; at 100 μM,0%
same,NI: No inhibition,[5]; at 100 μM,NI (No inhibition (less than 50% inhibition at 100 μM))
same,inhibition %,[5]; at 100 μM,0%
same,Percentage (%) cell growth inhibition,"A431 (skin carcinoma); n = 3, mean ± SEM",4 ± 4%
same,Percentage (%) cell growth inhibition,"[6]; n = 3, mean ± SEM",15 ± 9%
Borocaptate sodium [BSH],Percentage (%) cell growth inhibition,BE2-C (neuroblastoma); [9],10 ± 6%
same,NI: No inhibition,yeast α-glucosidase; at 1000 μM,NI (No inhibition (less than 50% inhibition at 1000 μM))
same,inhibition %,yeast α-glucosidase; at 1000 μM,6.9%
same,NI: No inhibition,[1]; at 1000 μM,NI (No inhibition (less than 50% inhibition at 1000 μM))
same,inhibition %,"[1]; at 1000 μM, in methanol",0%
same,NI: No inhibition,rice α-glucosidase; at 1000 μM,NI (No inhibition (less than 50% inhibition at 1000 μM))
same,inhibition %,"rice α-glucosidase; at 1000 μM, in methanol",0%
same,NI: No inhibition,[2]; at 1000 μM,NI (No inhibition (less than 50% inhibition at 1000 μM))
same,inhibition %,[2]; at 1000 μM,0.2%
same,Percentage (%) cell growth inhibition,"MCF-7 (breast carcinoma); n = 3, mean ± SEM",15 ± 3%
same,Percentage (%) cell growth inhibition,"[3]; n = 3, mean ± SEM",2 ± 5%
same,Percentage (%) cell growth inhibition,"H460 (lung carcinoma); n = 3, mean ± SEM",8 ± 2%
same,NI: No inhibition,[4]; at 1000 μM,NI (No inhibition (less than 50% inhibition at 1000 μM))
same,inhibition %,[4]; at 1000 μM,0%
same,NI: No inhibition,[5]; at 1000 μM,NI (No inhibition (less than 50% inhibition at 1000 μM))
same,inhibition %,[5]; at 1000 μM,0%
same,Percentage (%) cell growth inhibition,"A431 (skin carcinoma); n = 3, mean ± SEM",<0%
same,Percentage (%) cell growth inhibition,"[6]; n = 3, mean ± SEM",0 ± 8%
